For 30 compounds, bioavailability and DC50 results are on record in patent US20250059164A1, “IRAK DEGRADERS AND USES THEREOF” (Kymera Therapeutics, Inc., priority 2023, published 2025).

System in the first series: not listed separately
In words: Rodent pharmacokinetics (rat PK). In kind it is in vivo. Conditions: po, dosed intravenously or orally by gavage, plasma, read-out: F % (bioavailability). The procedure: All studies related to handling, care, and treatment of rats in the study were performed according to the guidelines approved by the Institutional Animal Care and Use Committee (IACUC). All rats had access to food and water ad libitum. Rats were dosed intravenously or orally by gavage. Whole blood was collected from the jugular vein immediately prior to dosing and at 5 (intravenously administered drugs only), 15, and 30 min and 1, 2, 4, 8, and 24 h after drug administration. After sampling, whole blood was centrifuged at 4,000×g for 5 min at 4° C. to obtain plasma.
The letter codes for bioavailability (F %) include: A (≥5%) and B (≤5%).
Take `CN(C[C@H]1CC[C@H](n2cc(NC(=O)c3cnn4ccc(N5CCCC5)nc34)c(C(F)F)n2)CC1)[C@H]1CCN(c2cccc3c2n(C)c(=O)n3C2CCC(=O)NC2=O)C[C@H]1F` (single isomer, unassigned) [I-21]: the bioavailability was no more than 5%.
Consider `CN(C[C@H]1CC[C@H](c2nc3cc(C(C)(C)O)c(NC(=O)c4cncc(C(F)(F)F)c4)cc3s2)CC1)[C@H]1CCN(c2cccc3c2n(C)c(=O)n3C2CCC(=O)NC2=O)C[C@@H]1F` (single isomer, unassigned) [I-160], for which the bioavailability was no less than 5%.
Still for that read-out and setting: the value for `CN(C[C@H]1CC[C@H](c2nc3cc(C(C)(C)O)c(NC(=O)c4cccc(C(F)(F)F)c4)cc3s2)CC1)[C@@H]1CCN(c2cccc3c2n(C)c(=O)n3C2CCC(=O)NC2=O)C[C@H]1F` (single isomer, unassigned) [I-176] was no less than 5%; that for `CN(C[C@H]1CC[C@H](c2nc3cc(C(C)(C)O)c(NC(=O)c4cccc(C(F)(F)F)c4)cc3s2)CC1)[C@H]1CCN(c2cccc3c2n(C)c(=O)n3C2CCC(=O)NC2=O)C[C@@H]1F` (single isomer, unassigned) [I-177] was no less than 5%; that for `COc1cn2nc([C@H]3CC[C@H](CN(C)[C@H]4CCN(c5cccc6c5n(C)c(=O)n6C5CCC(=O)NC5=O)C[C@H]4F)CC3)cc2cc1NC(=O)c1cncc(C(F)(F)F)n1` (single isomer, unassigned) [I-219] was no more than 5%.
The same measure, in the same setting: the value for `Cn1c(=O)n(C2CCC(=O)NC2=O)c2cccc(N3CC[C@H](CN4CCN(C[C@H]5CC[C@H](n6cc(NC(=O)c7cnn8ccc(N9C[C@H]%10C[C@@H]9CO%10)nc78)c(C(F)F)n6)CC5)CC4)C3)c21` (stereo partly drawn) [I-114] was no more than 5%; that for `COc1cn2nc([C@H]3CC[C@H](CN4CC[C@@H](c5cccc6c5n(C)c(=O)n6C5CCC(=O)NC5=O)[C@H](F)C4)CC3)cc2cc1NC(=O)c1cncc(C(F)(F)F)n1` (stereo partly drawn) [I-166] was no more than 5%.
Still for that read-out and setting: the value for `CN(C[C@H]1CC[C@H](c2nc3cc(C(C)(C)O)c(NC(=O)c4cccc(C(F)(F)F)n4)cc3o2)CC1)[C@H]1CCN(c2cccc3c2n(C)c(=O)n3C2CCC(=O)NC2=O)C[C@H]1F` (stereo partly drawn) [I-178] was no less than 5%; that for `Cn1nc(C2CCC(=O)NC2=O)c2cccc(N3CCC4(CCN(C[C@H]5CC[C@H](n6cc7cc(NC(=O)c8cncc(C#N)c8)c(C(C)(C)O)cc7n6)CC5)CC4(F)F)CC3)c21` (stereo partly drawn) [I-220] was no more than 5%; that for `Cn1c(=O)n(C2CCC(=O)NC2=O)c2cccc(N3CC4(CCN(C[C@H]5CC[C@H](n6cc7cc(NC(=O)c8cncc(C(F)(F)F)n8)ncc7n6)CC5)CC4(F)F)C3)c21` (stereo partly drawn) [I-221] was no more than 5%.

Another series has as its target T1, IRAK4 (Homo sapiens, UniProt Q9NWZ3).
T1 construct: endogenous in cells; host or cells: OCI-LY10
T1 sequence (Q9NWZ3 1-460): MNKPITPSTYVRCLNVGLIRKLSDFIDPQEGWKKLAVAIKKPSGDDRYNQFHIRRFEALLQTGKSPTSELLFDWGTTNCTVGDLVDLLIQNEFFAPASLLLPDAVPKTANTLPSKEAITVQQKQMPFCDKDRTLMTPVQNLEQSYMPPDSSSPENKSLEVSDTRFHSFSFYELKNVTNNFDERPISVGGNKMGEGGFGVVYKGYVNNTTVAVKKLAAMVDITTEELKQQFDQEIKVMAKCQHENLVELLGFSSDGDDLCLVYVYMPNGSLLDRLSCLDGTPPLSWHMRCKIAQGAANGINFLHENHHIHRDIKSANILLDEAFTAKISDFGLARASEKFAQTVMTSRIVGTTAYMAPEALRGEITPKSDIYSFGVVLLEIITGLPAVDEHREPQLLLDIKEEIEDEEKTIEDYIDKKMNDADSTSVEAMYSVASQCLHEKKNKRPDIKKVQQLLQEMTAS
The series can be described thus: IRAK4 MSD degradation in OCI-LY10. In kind it is cell-based. Conditions: OCI-LY10 cells, 24 hrs, Meso Scale Discovery. The procedure, abridged:
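Remaining IRAK4 protein measured by Meso Scale Discovery electrochemiluminescence sandwich assay on lysates of OCI-LY10 cells. Cells were exposed for 4 to 24 hours (37° C., 5% CO2) to eight 1:3-diluted concentrations starting at 1 to 10 μM. DC50 derived by three-parameter logistic fitting.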
In turn, `Cc1nn(C2CCC(=O)NC2=O)c2ccc(F)c(N3CC(CN4CCN(C[C@H]5CC[C@H](n6cc(NC(=O)c7cnn8ccc(N9C[C@H]%10C[C@@H]9CO%10)nc78)c(C(F)F)n6)CC5)CC4)C3)c12` (stereo partly drawn) [I-287] had a half-maximal degradation concentration (DC50) of less than 10 nM.
In turn, `Cn1c(=O)n(C2CCC(=O)NC2=O)c2cccc([C@@H]3CCN(C[C@H]4CC[C@H](c5nc6ccc(NC(=O)c7cncc(C(F)(F)F)n7)cc6o5)CC4)C[C@H]3F)c21` (stereo partly drawn) [I-295] registered a DC50 greater than 200 nM.
Still for that read-out and setting: to `COc1cn2nc([C@H]3CC[C@H](CN(C)[C@H]4CCN(c5cccc6c5n(C)c(=O)n6C5CCC(=O)NC5=O)C[C@@H]4F)CC3)cc2cc1NC(=O)c1cncc(C(F)(F)F)n1` (stereo partly drawn) [I-301] belongs less than 10 nM.
The same measure, in the same setting: the value for `Cn1c(=O)n(C2CCC(=O)NC2=O)c2cccc([C@@H]3CCN(C[C@H]4CC[C@H](n5cc6cc(NC(=O)c7cnnc(C(F)(F)F)c7)ccc6n5)CC4)C[C@H]3F)c21` (stereo partly drawn) [I-316] was greater than 200 nM; that for `Cn1c(=O)n(C2CCC(=O)NC2=O)c2cccc(C#CCN3CCN(C[C@H]4CC[C@H](n5cc(NC(=O)c6cnn7ccc(N8C[C@H]9C[C@@H]8CO9)nc67)c(C(F)F)n5)CC4)[C@@H](C(F)(F)F)C3)c21` (stereo partly drawn) [I-320] was 10 to 100 nM.
`Cn1c(=O)n(C2CCC(=O)NC2=O)c2cccc(C#CCN3CCN(C[C@H]4CC[C@H](n5cc(NC(=O)c6cnn7ccc(N8C[C@H]9C[C@@H]8CO9)nc67)c(C(F)F)n5)CC4)[C@H](C(F)(F)F)C3)c21` (stereo partly drawn) [I-345] gave a 50% degradation concentration (DC50) of 10 to 100 nM.
Still for that read-out and setting: to `Cn1c(=O)n(C2CCC(=O)NC2=O)c2cccc(N3CCN(C[C@H]4CC[C@H](n5cc6cc(NC(=O)c7cncc(C(F)(F)F)n7)ccc6n5)CC4)CC3=O)c21` (stereo partly drawn) [I-350] belongs less than 10 nM.
On the same count and under the same terms, to `Cn1c(=O)n(C2CCC(=O)NC2=O)c2cccc(N3CCC4(CCN(C[C@H]5CC[C@H](n6cc7cc(NC(=O)c8cncc(C(F)(F)F)n8)c(C(C)(C)O)cc7n6)CC5)CC4(F)F)CC3)c21` (stereo partly drawn) [I-354] belongs less than 10 nM; to `Cn1c(=O)n(C2CCC(=O)NC2=O)c2cccc(C3CCN(C[C@H]4CC[C@H](n5cc6cc(NC(=O)c7cncc(C(F)(F)F)n7)ccc6n5)CC4)C(=O)C3)c21` (stereo partly drawn) [I-358], less than 10 nM; to `Cn1c(=O)n(C2CCC(=O)NC2=O)c2cccc(N3CCN(C[C@H]4CC[C@H](n5cc6cc(NC(=O)c7cncc(C(F)(F)F)n7)ccc6n5)CC4)[C@H](C(F)(F)F)C3)c21` (stereo partly drawn) [I-368], 10 to 100 nM.
Same read-out and setting: to `Cn1c(=O)n(C2CCC(=O)NC2=O)c2cccc(N3CCN(C[C@H]4CC[C@H](n5cc6cc(NC(=O)c7cncc(C(F)(F)F)n7)ccc6n5)CC4)[C@@H](C(F)(F)F)C3)c21` (stereo partly drawn) [I-369] belongs 100 to 200 nM; to `CN1C(=O)CCC(n2c(=O)n(C)c3c([C@@H]4CCN(C[C@H]5CC[C@H](n6cc7cc(NC(=O)c8cncc(C(F)(F)F)n8)ccc7n6)CC5)CC4(F)F)cccc32)C1=O` (stereo partly drawn) [I-378], greater than 200 nM.
As to `CN1C(=O)CCC(n2c(=O)n(C)c3c([C@@H]4CCN(C[C@H]5CC[C@H](n6cc7cc(NC(=O)c8cncc(C(F)(F)F)n8)ccc7n6)CC5)C[C@H]4F)cccc32)C1=O` (stereo partly drawn) [I-382], the 50% degradation concentration (DC50) was greater than 200 nM.
On the same count and under the same terms, to `COc1ccc2c(c1N1CCC3(CCN(C[C@H]4CC[C@H](n5cc6cc(NC(=O)c7cncc(C#N)c7)c(C(C)(C)O)cc6n5)CC4)CC3(F)F)CC1)n(C)c(=O)n2C1CCC(=O)NC1=O` (stereo partly drawn) [I-397] belongs less than 10 nM; to `COc1cc(C(=O)Nc2ccc3nn([C@H]4CC[C@H](CN5CCC6(CCN(c7cccc8c7n(C)c(=O)n8C7CCC(=O)NC7=O)CC6)C(F)(F)C5)CC4)cc3c2)nc(C(F)(F)F)c1` (stereo partly drawn) [I-398], greater than 200 nM.
The same measure, in the same setting: the value for `Cn1c(=O)n(C2CCC(=O)NC2=O)c2ccc(F)c(N3CCC4(CCN(C[C@H]5CC[C@H](n6cc7cc(NC(=O)c8cncc(C(F)(F)F)n8)ccc7n6)CC5)CC4(F)F)CC3)c21` (stereo partly drawn) [I-399] was 10 to 100 nM; that for `COc1cc(C(=O)Nc2ccc3nn([C@H]4CC[C@H](CN5CC[C@@H](c6cccc7c6n(C)c(=O)n7C6CCC(=O)NC6=O)C(F)(F)C5)CC4)cc3c2)nc(C(F)(F)F)c1` (stereo partly drawn) [I-401] was greater than 200 nM.
Same read-out and setting: to `Cc1cc(C(=O)Nc2ccc3nn([C@H]4CC[C@H](CN5CC[C@@H](c6cccc7c6n(C)c(=O)n7C6CCC(=O)NC6=O)C(F)(F)C5)CC4)cc3c2)nc(C(F)(F)F)c1` (stereo partly drawn) [I-402] belongs greater than 200 nM; to `Cc1cc(C(=O)Nc2ccc3nn([C@H]4CC[C@H](CN5CCC6(CCN(c7cccc8c7n(C)c(=O)n8C7CCC(=O)NC7=O)CC6)C(F)(F)C5)CC4)cc3c2)nc(C(F)(F)F)c1` (stereo partly drawn) [I-403], greater than 200 nM; to `Cn1c(=O)n(C2CCC(=O)NC2=O)c2cccc([C@@H]3CCN(C[C@H]4CC[C@H](n5cc6cc(NC(=O)c7cncc(C#N)c7)c(C(C)(C)O)cc6n5)CC4)CC3(F)F)c21` (stereo partly drawn) [I-416], less than 10 nM.
